Source: ChEMBL document CHEMBL6177950, “Discovery of potent and selective CDK2 inhibitors with high safety and favorable bioavailability for the treatment of cancer” (Eur J Med Chem, 2025)

system: OVCAR-3; test: Induction of apoptosis in human OVCAR-3 cells assessed as late apoptotic cells at 2 uM incubated for 24 hrs by Annexin V-FITC/PI staining based flow cytometry analysis (reference value: 2.67%); format: functional; conditions: not given

Row | SMILES | Activity [%]
1 | FC(F)Oc1cc(Nc2cnc3cnn(CC4CCOCC4)c3n2)n[nH]1 [CERTOCICLIB] | 12.5

system: OVCAR-3; test: Induction of cell cycle arrest in human OVCAR-3 cells assessed as accumulation of cells at G2 phase at 2 uM incubated for 24 hrs by flow cytometry analysis (reference value: 21.77%); format: functional; conditions: not given

Row | SMILES | Activity [%]
2 | FC(F)Oc1cc(Nc2cnc3cnn(CC4CCOCC4)c3n2)n[nH]1 [CERTOCICLIB] | 2.64

system: MCF7; test: Antiproliferative activity against wild type human MCF7 cells assessed as cell growth inhibition; format: functional, cell-based; conditions: not given

Row | IC50 [µM] | SMILES
3 | 0.08 | CC(=O)c1c(C)c2cnc(Nc3ccc(N4CCNCC4)cn3)nc2n(C2CCCC2)c1=O [PALBOCICLIB]

system: OVCAR-3; test: Induction of apoptosis in human OVCAR-3 cells assessed as viable cells at 2 uM incubated for 24 hrs by Annexin V-FITC/PI staining based flow cytometry analysis (reference value: 95.2%); format: functional; conditions: read-out: Activity

Row | SMILES | viability at 2 µM [%]
4 | FC(F)Oc1cc(Nc2cnc3cnn(CC4CCOCC4)c3n2)n[nH]1 [CERTOCICLIB] | 79.3

system: OVCAR-3; test: Induction of apoptosis in human OVCAR-3 cells assessed as early apoptotic cells at 2 uM incubated for 24 hrs by Annexin V-FITC/PI staining based flow cytometry analysis (reference value: 1.25%); format: functional; conditions: not given

Row | SMILES | Activity [%]
5 | FC(F)Oc1cc(Nc2cnc3cnn(CC4CCOCC4)c3n2)n[nH]1 [CERTOCICLIB] | 4.47

system: not listed separately; test: Antiproliferative activity against CCNE1-amplified human OVCAR-3 cells assessed as cell growth inhibition incubated for 3 days by CCK8 assay; format: functional, cell-based; conditions: OVCAR-3, 72 h

Row | SMILES | IC50 [µM]
6 | FC(F)Oc1cc(Nc2cnc3cnn(CC4CCOCC4)c3n2)n[nH]1 [CERTOCICLIB] | 2.31

target: Cyclin-dependent kinase 2/cyclin E1 (Homo sapiens, UniProt P24941); test: Inhibition of CDK2/Cyclin E1 (unknown origin) pre-incubated for 10 mins followed by ATP/substrate addition and measured after 60 mins by ADP-Glo assay; format: protein-complex assay; conditions: not given

Row | SMILES | IC50 [µM]
7 | COCCS(=O)(=O)N1CCC(Nc2ncc(F)c(-c3cnc(OC(C)C)c(F)c3)n2)CC1 | 0.124
8 | CC(C)Oc1ccc(-c2nc(NC3CCN(S(C)(=O)=O)CC3)ncc2F)cn1 | 0.093
9 | CCn1cc(-c2nc(NC3CCN(S(C)(=O)=O)CC3)ncc2F)cc(F)c1=O | 0.023
10 | Cc1cc(-c2nc(NC3CCN(S(C)(=O)=O)CC3)ncc2F)cnc1OC(C)C | 0.166
11 | Cn1cc(-c2nc(NC3CCN(S(C)(=O)=O)CC3)ncc2F)cc(F)c1=O | 0.07
12 | CC(C)n1cc(-c2nc(NC3CCN(S(=O)(=O)C(F)(F)F)CC3)ncc2F)ccc1=O | 0.042
13 | Cc1nc(OC(C)C)ccc1-c1nc(NC2CCN(S(C)(=O)=O)CC2)ncc1F | 0.297
14 | CCS(=O)(=O)N1CCC(Nc2ncc(F)c(-c3cnc(OC(C)C)c(F)c3)n2)CC1 | 0.113
15 | CC(C)n1cc(-c2nc(NC3CCN(C(=O)OC(C)(C)C)CC3)ncc2F)ccc1=O | 0.139
16 | CC(C)Oc1ncc(-c2nc(NC3CCN(S(=O)(=O)C(C)C)CC3)ncc2F)cc1F | 0.216
17 | CC(=O)N1CCC(Nc2ncc(F)c(-c3ccc(=O)n(C(C)C)c3)n2)CC1 | 0.063
18 | CC(C)n1cc(-c2nc(NC3CCNCC3)ncc2F)ccc1=O | > 1
19 | CC(C)Oc1ncc(-c2nc(NC3CCN(S(C)(=O)=O)CC3)ncc2F)cc1F | 0.073
20 | CCCS(=O)(=O)N1CCC(Nc2ncc(F)c(-c3cnc(OC(C)C)c(F)c3)n2)CC1 | 0.13
21 | COc1cnc(NC2CCN(S(C)(=O)=O)CC2)nc1-c1cnc(OC(C)C)c(F)c1 | 0.341
22 | Cc1cc(-c2nc(NC3CCN(S(C)(=O)=O)CC3)ncc2F)cn(C(C)C)c1=O | 0.222
23 | CC(C)Oc1ncc(-c2ccnc(NC3CCN(S(C)(=O)=O)CC3)n2)cc1F | 0.81
24 | CC(C)Oc1ncc(-c2nc(NC3CCN(S(C)(=O)=O)CC3)ncc2F)cc1C(=O)O | 0.656

More lines, now with the values ahead:

Row | IC50 [µM] | SMILES
25 | 0.007 | CCCS(=O)(=O)N1CCC(Nc2ncc(F)c(-c3ccc(=O)n(C(C)C)c3)n2)CC1
26 | 0.006 | CCS(=O)(=O)N1CCC(Nc2ncc(F)c(-c3cc(F)c(=O)n(C(C)C)c3)n2)CC1
27 | 0.003 | CCC(C)n1cc(-c2nc(NC3CCN(S(C)(=O)=O)CC3)ncc2F)cc(F)c1=O (stereo not drawn)
28 | 0.012 | CC(C)Cn1cc(-c2nc(NC3CCN(S(C)(=O)=O)CC3)ncc2F)cc(F)c1=O
29 | 0.007 | CCC(C)n1cc(-c2nc(NC3CCN(S(=O)(=O)CC)CC3)ncc2F)cc(F)c1=O (stereo not drawn)
30 | 0.005 | CCC(C)n1cc(-c2nc(NC3CCN(S(=O)(=O)CCOC)CC3)ncc2F)cc(F)c1=O (stereo not drawn)
31 | 0.008 | CC(C)n1cc(-c2nc(NC3CCN(S(=O)(=O)C(C)C)CC3)ncc2F)cc(F)c1=O
32 | 0.004 | CC(C)n1cc(-c2nc(NC3CCN(S(C)(=O)=O)CC3)ncc2F)cc(F)c1=O
33 | 0.005 | CCCS(=O)(=O)N1CCC(Nc2ncc(F)c(-c3cc(F)c(=O)n(C(C)C)c3)n2)CC1
34 | 0.016 | CC(C)n1cc(-c2nc(NC3CCN(S(=O)(=O)C(C)C)CC3)ncc2F)ccc1=O
35 | 0.007 | CC(C)n1cc(-c2nc(NC3CCN(S(C)(=O)=O)CC3)ncc2F)ccc1=O
36 | 0.005 | CC(C)n1cc(-c2nc(NC3CCN(S(=O)(=O)C4CC4)CC3)ncc2F)cc(F)c1=O
37 | 0.015 | CC(C)=CCn1cc(-c2nc(NC3CCN(S(C)(=O)=O)CC3)ncc2F)cc(F)c1=O
38 | 0.01 | COCCS(=O)(=O)N1CCC(Nc2ncc(F)c(-c3ccc(=O)n(C(C)C)c3)n2)CC1
39 | 0.013 | CCCCn1cc(-c2nc(NC3CCN(S(C)(=O)=O)CC3)ncc2F)cc(F)c1=O
40 | 0.007 | COCCS(=O)(=O)N1CCC(Nc2ncc(F)c(-c3cc(F)c(=O)n(C(C)C)c3)n2)CC1

system: OVCAR-3; test: Induction of cell cycle arrest in human OVCAR-3 cells assessed as accumulation of cells at G1 phase at 2 uM incubated for 24 hrs by flow cytometry analysis (reference value: 67.73%); format: functional; conditions: not given

Row | SMILES | Activity [%]
41 | FC(F)Oc1cc(Nc2cnc3cnn(CC4CCOCC4)c3n2)n[nH]1 [CERTOCICLIB] | 95.66

system: OVCAR-3; test: Induction of apoptosis in human OVCAR-3 cells assessed as necrotic cells at 2 uM incubated for 24 hrs by Annexin V-FITC/PI staining based flow cytometry analysis (reference value: 0.87%); format: functional; conditions: not given

Row | SMILES | Activity [%]
42 | FC(F)Oc1cc(Nc2cnc3cnn(CC4CCOCC4)c3n2)n[nH]1 [CERTOCICLIB] | 3.77

system: not listed separately; test: Antiproliferative activity against Palbociclib-resistance human MCF7 cells assessed as cell growth inhibition; format: functional, cell-based, Palbociclib-resistant MCF7 cell; conditions: not given

Row | SMILES | IC50 [µM]
43 | CC(=O)c1c(C)c2cnc(Nc3ccc(N4CCNCC4)cn3)nc2n(C2CCCC2)c1=O [PALBOCICLIB] | 13.8
